Reference: US11566062B2, “Methods for modulating protein mannosylation profiles using maduramycin, narasin, or salinomycin” (ARES TRADING S.A., priority 2017, dated 2023)
“Also recorded” adds a separate entry of the source.

What was measured:
Format in all cases: cell-based, Chinese hamster
[1] = system: mannosylation level of mAb2; test: Glycosylation (mannosylation) profile of mAb2 by mass spectroscopy; details: for total mannosylation: 10 nM added at the start; for impact on afucoslyated glycoforms: data non shown; for level of Man5 species / level of Man6 species (M6) / level of Man7 species: day 10, 10 nM added at the start of the culture; for level of fucosylated glycoforms: not shown
Method: (§1) All assays were performed in fed-batch culture. A serum-free chemically defined culture medium was used. It was used as it is, or it was supplemented with polyether ionophore compounds (maduramycin, narasin, salinomycin and lasalocid were all purchased from Sigma-Aldrich) at the desired concentrations. The culture medium was fed, on a regular basis, with a chemically defined feed medium, as well as with glucose in order to keep said glucose level in the range of >0 to about 8 g/L (feeds were done at days 3, 5, 7, 10 and additional glucose feed at day 12).
(§2) For examples 2 and 3, cultures were performed in Ambr®15 with a working volume of 14 mL (36.5° C., Dissolved Oxygen 40%, 0.1 ml/min N2, pH range: 6.75-7.15, 800 rpm). A temperature shift was performed at day 6 for the cells expressing mAb1. Further conditions are mentioned in Table 2.
(§3) Glycosylation profiles were established either by Ultra Performance Liquid Chromatography-2-amino-benzamide labelling technique (2AB-UPLC; mAb1) or by mass spectroscopy (MS; mAB2). Groups of glycans were defined in Table 1.
(§4) The cells were cultivated and the results analysed as disclosed in the material and method section.

mAb2 cells [2] = test: Viable cell density (ViCell) of mAb2 cells, fed-batch Ambr15
Method: (§5) Cells expressing mAb1 and mAb2 were inoculated at 0.2×10^6 cells per millilitre (mL).
as §1, §2
(§6) Each of the fed-batch culture lasted 14 days.
(§7) Viable cell density and viability were measured with the ViCell® (Beckmann Coulter). Antibody titers were measured with PA-HPLC.
as §4

mAb1 cells [3] = test: Viable cell density and viability (ViCell) of mAb1 cells, fed-batch Ambr15; details: 5 and 10 nM added at the start of the culture
Method: as §5, §1, §2, §6, §7, §4

[4] = system: mannosylation level of mAb1; test: Glycosylation (mannosylation) profile of mAb1 by 2AB-UPLC; set-up: level of ManS species / level of Man6 species (M6) / level of Man7 species / level of Man8 species / level of Man9 species: dose or concentration left out as unconfirmed; details: for total mannosylation: 10 nM added at the start; for level of Man6 species (M6) / level of Man7 species / level of Man8 species / level of Man9 species / level of ManS species: day 12, added at the start of the culture
Method: as §1, §2, §3, §4

mAb2 cells [5] = test: Titre (PA-HPLC) of mAb2 cells, fed-batch Ambr15
Method: as §5, §1, §2, §6, §7, §4

mAb1 cells [6] = test: Antibody titre (PA-HPLC) of mAb1 cells, fed-batch Ambr15; details: 5 and 10 nM added at the start of the culture
Method: as §5, §1, §2, §6, §7, §4

mAb1 cells [7] = test: Toxicity of the polyether ionophores: viable cell density (ViCell) in fed-batch SpinTubes culture; details: all concentrations tested (100, 250, 500 and 1000 nM; as low as 100 nM), vs control
Method: as §5, §1
For example 1, cultures were performed in SpinTubes® with a working volume of 30 mL. They were incubated at 36.5° C., 5% de CO2, 80% humidity and shaken at 320 rpm. Salinomycin, narasin and maduramycin were tested at 100, 250, 500 and 1000 nM.
as §6, §7
The cells were cultivated and the results analysed as disclosed in the material and method section. It is noted that the controls (or control conditions) according to the present invention correspond to cells grown without any polyether ionophores.

[8] = 10 nM added at the start of the culture

Compound | impact on afucoslyated glycoforms [1] | level of Man5 species [1] | level of Man6 species (M6) [1] | level of Man7 species [1] | level of fucosylated glycoforms [1] | cell growth (VCD) at the end of culture compared to the control (mAb1 cells [3]) [%] | level of Man6 species (M6) [4] | level of Man7 species [4] | level of Man8 species [4] | level of Man9 species [4] | level of ManS species [4] | protein titre at the end of culture compared to the control (mAb1 cells [6]) [%] | VCD decreased by a factor (mAb1 cells [7]) | other results
CC[C@@H](C(=O)O)[C@@H]1O[C@@H]([C@@H](C)[C@H](O)[C@H](C)C(=O)[C@H](CC)[C@H]2O[C@]3(C=C[C@@H](O)[C@]4(CC[C@@](C)([C@H]5CC[C@](O)(CC)[C@H](C)O5)O4)O3)[C@H](C)C[C@@H]2C)[C@@H](C)C[C@@H]1C [narasin, Narasin] | without deeply impacting afucoslyated glycoforms | about 16.5% | about 3% | about 1.0% | decreased | −15 | about 6.5% | about 4.5% | about 3.5% | about 0.5% | about 32% | −15 | 3 | total mannosylation ([1]; after 10 days of culture): about 12.0%; total mannosylation ([1]; after 12 days of culture): 18.0%; impact on cell growth (mAb2 cells [2]; both concentrations (5 and 10 nM) added at the start of the culture): negative impact on cell growth; total mannosylation ([4]; after 12 days of culture): about 43%; total mannosylation ([4]; after 14 days of culture): 38.9%; titre compared to the control (mAb2 cells [5]; 5 nM added at the start of the culture): +10%; titre compared to the control (mAb2 cells [5]; [8]): +15%
CC[C@@H](C(=O)[C@@H](C)[C@@H](O)[C@H](C)[C@@H]1O[C@@H]([C@@H](CC)C(=O)O)CC[C@@H]1C)[C@H]1O[C@]2(C=C[C@@H](O)[C@]3(CC[C@@](C)([C@H]4CC[C@](O)(CC)[C@H](C)O4)O3)O2)[C@H](C)C[C@@H]1C [salinomycin, Salinomycin] | without deeply impacting afucoslyated glycoforms | about 15% | about 2.5% | about 0.65% | decreased | −13 | about 3.2% | about 1.5% | about 0.3% | about 0.45% | about 27% | −15 | 3 | cell growth compared to the control at the end of culture (mAb2 cells [2]; [8]): not more than 10%
Lasalocid | – | – | – | – | – | – | – | – | – | – | – | – | – | effect on mannosylation ([4]; concentration not given): no effect on mannosylation; also recorded: no impact on mannosylation
